# Results taken from US20230107216A1, “PANTETHEINE DERIVATIVES AND USES THEREOF” (Comet Therapeutics, Inc., priority 2018, published 2023).
# Like-named read-outs stand apart in the source and are kept apart here.
# Key:
# [1] = test system: primary culture of rat embryo mesencephalic cells (microglia, astrocytes and neurons) exposed to LPS; test: Neuroprotective effect on damage induced by LPS on culture of mesencephalic neurons (NO, TNF-α, IL-1β, TH positive neurons); format: cell-based; conditions: after 5 days of LPS exposure; for inhibition at 50 µM / inhibition at 10 µM: Rattus norvegicus, Neuron, 120 h, read-out: % reversion of TH positive neurons
# Procedure, shortened: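 E15 Wistar rat ventral mesencephalic cultures, day 7, pretreated 1 h with compound (0.1% DMSO) before LPS 10 ng/ml. NO (Griess) at 24 h and 5 days and IL-1β/TNF-α (ELISA) at 24 h, expressed vs LPS control = 100%; TH+ neurons counted by imaging at 5 days, vs non-intoxicated = 100%.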
# [2] = test system: Peripheral blood mononuclear cells co-cultured with venular endothelial cells (HUVEC) (LPS system); test: BioMAP LPS system; format: cell-based, human; conditions: procedure of Example 827
# [3] = Homo sapiens, HUVEC, 24 h, 1 uM, read-out: % decrease in IL-8
# [4] = Homo sapiens, HUVEC, 24 h, 1 uM, read-out: % decrease in sPGE2
# [5] = Homo sapiens, HUVEC, 24 h, 10 uM, read-out: % decrease in IL-1α
# [6] = Homo sapiens, HUVEC, 24 h, 10 uM, read-out: % decrease in TissueFactor
# [7] = Homo sapiens, HUVEC, 24 h, 10 uM, read-out: % decrease in sPGE2
# [8] = Homo sapiens, HUVEC, 24 h, 10 uM, read-out: % increase in sTNFα
# [9] = Homo sapiens, HUVEC, 24 h, 10 uM, read-out: % decrease in IL-8
# [10] = Homo sapiens, HUVEC, 24 h, 1 uM, read-out: % decrease in IL-1α
structure (smiles),measurement,setting,value
"CC(=O)SCCNC(=O)CCNC(=O)[C@H](O)C(C)(C)COC(=O)[C@@H](N)Cc1ccc(O)c(O)c1 [Compound 498, (3R)-3-[(2-[[2-(acetylsulfanyl)ethyl]carbamoyl]ethyl)carbamoyl]-3-hydroxy-2,2-dimethylpropyl (2S)-2-amino-3-(3,4-dihydroxyphenyl)propanoate]",inhibition at 50 µM,"[1]; 50 uM, list at threshold 15%",≥ 15%
same,% decrease in sTNFα,[2]; 1 uM,≥10%
same,inhibition at 1 µM,[2]; [3],≥ 20%
same,inhibition at 1 µM,[2]; [4],≥ 10%
same,inhibition at 10 µM,[2]; [5],≥ 10%
"CC(=O)OCC(C)(C)[C@@H](O)C(=O)NCCC(=O)NCCSC(=O)CC(=O)CCC(=O)O [Compound 140, 6-[(2-[3-[(2R)-4-(acetyloxy)-2-hydroxy-3,3-dimethylbutanamido]propanamido]ethyl)sulfanyl]-4,6-dioxohexanoic acid]",inhibition at 50 µM,"[1]; 50 uM, list at threshold 15%",≥ 15%
same,inhibition at 50 µM,"[1]; 50 uM, list at threshold 50%",≥ 50%
COC(=O)CC(C(C)=O)C(=O)SCCNC(=O)CCNC(=O)[C@H](O)C(C)(C)CO (some centres unmarked) [Compound 410],% decrease in NO release relative to LPS alone,[1]; 50 uM,≥10%
same,inhibition at 50 µM,"[1]; 50 uM, list at threshold 15%",≥ 15%
"COC(=O)CCC(=O)SCCNC(=O)CCNC(=O)[C@H](OC(=O)CN)C(C)(C)CO [Compound 1294, methyl 4-[(2-[3-[(2R)-2-[(2-aminoacetyl)oxy]-4-hydroxy-3,3-dimethylbutanamido]propanamido]ethyl)sulfanyl]-4-oxobutanoate]",inhibition at 1 µM,[2]; [3],≥ 10%
same,activation at 1 µM,"[2]; Homo sapiens, HUVEC, 24 h, 1 uM, read-out: % increase in sTNFα",≥ 10%
same,inhibition at 10 µM,[2]; [6],≥ 10%
same,inhibition at 10 µM,[2]; [7],≥ 10%
"C[C@@H](O)CC(=O)CC(=O)SCCNC(=O)CCNC(=O)[C@H](O)C(C)(C)CO [Compound 42, (2R)-2,4-dihydroxy-N-[2-[(2-[[(5R)-5-hydroxy-3-oxohexanoyl]sulfanyl]ethyl)carbamoyl]ethyl]-3,3-dimethylbutanamide]",% decrease in NO release relative to LPS alone,[1]; 50 uM,≥5%
same,inhibition at 50 µM,"[1]; 50 uM, list at threshold 15%",≥ 15%
same,inhibition at 50 µM,"[1]; 50 uM, list at threshold 50%",≥ 50%
same,% decrease in Thrombomodulin,[2]; 10 uM,≥10%
same,inhibition at 10 µM,[2]; [6],≥ 10%
same,activation at 10 µM,[2]; [8],≥ 10%
"C[C@@H](O)CC(=O)SCCNC(=O)CCNC(=O)[C@H](O)C(C)(C)CO [Compound 38, S-2-{3-[(R)-2,4-dihydroxy-3,3-dimethylbutyrylamino]propionylamino} ethyl (R)-3-hydroxybutanethioate]",inhibition at 10 µM,"[1]; 10 uM, list at threshold 15%",≥ 15%
"CC(=O)SCCNC(=O)CCNC(=O)[C@H](O)C(C)(C)COC(=O)[C@H](C)N [Compound 502, (3R)-3-[(2-[[2-(acetylsulfanyl)ethyl]carbamoyl]ethyl)carbamoyl]-3-hydroxy-2,2-dimethylpropyl (2S)-2-aminopropanoate]",inhibition at 10 µM,[2]; [9],≥ 10%
same,inhibition at 10 µM,[2]; [6],≥ 10%
same,inhibition at 10 µM,[2]; [7],≥ 10%
"COC(=O)CC(SCCNC(=O)CCNC(=O)[C@H](O)C(C)(C)COC(C)=O)C(=O)OC (stereo partly drawn) [Compound 149, 1,4-dimethyl 2-[(2-[3-[(2R)-4-(acetyloxy)-2-hydroxy-3,3-dimethylbutanamido]propanamido]ethyl)sulfanyl]butanedioate]",% increase in Tissue Factor,[2]; 1 uM,≥10%
same,% increase in IL-8,[2]; 10 uM,≥10%
same,inhibition at 10 µM,[2]; [5],≥ 10%
same,inhibition at 10 µM,[2]; [6],≥ 20%
same,inhibition at 10 µM,[2]; [7],≥ 10%
COC(=O)CCC(=O)SCCNC(=O)CCNC(=O)[C@H](O)C(C)(C)COC(C)=O [Compound 138],inhibition at 50 µM,"[1]; 50 uM, list at threshold 15%",≥ 15%
same,inhibition at 50 µM,"[1]; 50 uM, list at threshold 50%",≥ 50%
same,% increase in Tissue Factor,[2]; 1 uM,≥10%
same,inhibition at 1 µM,[2]; [4],≥ 10%
"CC(C)(CO)[C@@H](O)C(=O)NCCC(=O)NCCSC(CC(=O)OCC[N+](C)(C)C)C(=O)O (stereo partly drawn) [Compound 51, [2-([3-carboxy-3-[(2-[3-[(2R)-2,4-dihydroxy-3,3-dimethylbutanamido]propanamido]ethyl)sulfanyl]propanoyl]oxy)ethyl]trimethylazanium]",% decrease in NO release relative to LPS alone,[1]; 10 uM,≥5%
same,inhibition at 50 µM,"[1]; 50 uM, list at threshold 15%",≥ 15%
same,inhibition at 50 µM,"[1]; 50 uM, list at threshold 50%",≥ 50%
"COC(=O)CCC(=O)SCCNC(=O)CCNC(=O)[C@H](OC(=O)CNC(C)=O)C(C)(C)CO [Compound 1298, methyl 4-[(2-[3-[(2R)-2-[(2-acetamidoacetyl)oxy]-4-hydroxy-3,3-dimethylbutanamido]propanamido]ethyl)sulfanyl]-4-oxobutanoate]",% decrease in M-CSF,[2]; 1 uM,≥20%
same,% decrease in sTNFα,[2]; 1 uM,≥10%
same,% decrease in Thrombomodulin,[2]; 10 uM,≥10%
same,inhibition at 1 µM,[2]; [3],≥ 10%
same,inhibition at 1 µM,[2]; [4],≥ 20%
same,inhibition at 10 µM,[2]; [5],≥ 10%
same,inhibition at 10 µM,[2]; [6],≥ 10%
same,activation at 10 µM,[2]; [8],≥ 10%
"CC(C)(CO)[C@@H](O)C(=O)NCCC(=O)NCCSC(=O)[C@@H](N)Cc1ccc(O)c(O)c1 [Compound 371, (2R)—N-[2-[(2-[[(2S)-2-amino-3-(3,4-dihydroxyphenyl)propanoyl]sulfanyl]ethyl)carbamoyl]ethyl]-2,4-dihydroxy-3,3-dimethylbutanamide]",% decrease in sTNFα,[2]; 10 uM,≥10%
same,inhibition at 1 µM,[2]; [10],≥ 10%
same,inhibition at 10 µM,[2]; [9],≥ 10%
same,inhibition at 10 µM,[2]; [7],≥ 10%
"CCCCCCC(=O)SCCNC(=O)CCNC(=O)[C@H](O)C(C)(C)CO [Compound 372, (2R)—N-(2-[[2-(heptanoylsulfanyl)ethyl]carbamoyl]ethyl)-2,4-dihydroxy-3,3-dimethylbutanamide]",inhibition at 1 µM,[2]; [10],≥ 10%
same,inhibition at 10 µM,[2]; [9],≥ 20%
same,inhibition at 10 µM,[2]; [6],≥ 10%
same,activation at 10 µM,[2]; [8],≥ 10%
"CC(C)(COC(=O)OCC[N+](C)(C)C)[C@@H](O)C(=O)NCCC(=O)NCCSC(=O)CCC(=O)O [Compound 116, [2-([[(3R)-3-[[2-([2-[(3-carboxypropanoyl)sulfanyl]ethyl]carbamoyl)ethyl]carbamoyl]-3-hydroxy-2,2-dimethylpropoxy]carbonyl]oxy)ethyl]trimethylazanium]",inhibition at 10 µM,"[1]; 10 uM, list at threshold 15%",≥ 15%
same,inhibition at 10 µM,[2]; [5],≥ 10%
